Drawing on ChEMBL document CHEMBL3044893, “Synthesis and structureactivity relationships of aliphatic isothiocyanate analogs as antibiotic agents” (Med Chem Res, 2013), this text covers inhibition of growth, EC50 and logP for eight molecules.

Broadly, the EC50 is the concentration giving half of the maximal effect. High values mean a need for much substance, low ones an effect from little substance. In general, logP refers to the decadic logarithm of the partition coefficient of the neutral form, usually between octanol and water. A low value points to a more hydrophilic compound.

≈ marks a conversion by molar mass, not a printed value.

The test system of data set [1] is Pectobacterium carotovorum. The data set is described as follows: Growth inhibition of Pectobacterium carotovorum at 20 ug/ml after 12 hr by turbidometric analysis. Type of data set: functional. The following applies: read-out: GI.
Data set [2] relates to Rhizoctonia solani. Briefly: Antifungal activity against Rhizoctonia solani after 24 to 28 […] by growth rate method. Type of data set: functional, organism-based.
The test system of data set [3] is Pectobacterium carotovorum. Briefly: Growth inhibition of Pectobacterium carotovorum at 30 ug/ml after 12 hr by turbidometric analysis. Type of data set: functional. The following applies: read-out: GI.
Data set [4] is described as follows: 1-octanol-water partition coefficient, log P of the compound by shake flask method. Type of data set: physicochemical.
The subject of data set [5] is Rhizoctonia solani. Briefly: Growth inhibition of Rhizoctonia solani at 500 ug/ml after 24 to 28 […] by growth rate method. The format is functional. The following applies: read-out: GI.
In data set [6] the test system is Pectobacterium carotovorum. Briefly: Antibacterial activity against Pectobacterium carotovorum after 12 hr by turbidometric analysis. The format is functional, organism-based.
Data set [7] deals with Pectobacterium carotovorum. The data set is described as follows: Growth inhibition of Pectobacterium carotovorum at 5 ug/ml after 12 hr by turbidometric analysis. Type of data set: functional. The following applies: read-out: GI.
Data set [8] deals with Rhizoctonia solani. The data set is described as follows: Growth inhibition of Rhizoctonia solani at 10 ug/ml after 24 to 28 […] by growth rate method. The format is functional. The following applies: read-out: GI.
Data set [9] concerns Rhizoctonia solani. Briefly: Growth inhibition of Rhizoctonia solani at 50 ug/ml after 24 to 28 […] by growth rate method. As to conditions: read-out: GI. The format is functional.
Data set [10] has as its system Rhizoctonia solani. The data set is described as follows: Growth inhibition of Rhizoctonia solani at 300 ug/ml after 24 to 28 […] by growth rate method. As to conditions: read-out: GI. The format is functional.
Data set [11] relates to Pectobacterium carotovorum. Briefly: Growth inhibition of Pectobacterium carotovorum at 10 ug/ml after 12 hr by turbidometric analysis. The format is functional. As to conditions: read-out: GI.
In data set [12] the test system is Pectobacterium carotovorum. The data set is described as follows: Growth inhibition of Pectobacterium carotovorum at 50 ug/ml after 12 hr by turbidometric analysis. Type of data set: functional. As to conditions: read-out: GI.
Data set [13] relates to Rhizoctonia solani. The data set is described as follows: Growth inhibition of Rhizoctonia solani at 100 ug/ml after 24 to 28 […] by growth rate method. The format is functional. The following applies: read-out: GI.
The subject of data set [14] is Pectobacterium carotovorum. Briefly: Growth inhibition of Pectobacterium carotovorum at 1 ug/ml after 12 hr by turbidometric analysis. The format is functional. The following applies: read-out: GI.
Data set [15] has as its system Pectobacterium carotovorum. The data set is described as follows: Growth inhibition of Pectobacterium carotovorum at 0.5 ug/ml after 12 hr by turbidometric analysis. The following applies: read-out: GI. The format is functional.
For data set [16], the system named is Pectobacterium carotovorum. Briefly: Growth inhibition of Pectobacterium carotovorum at 0.01 ug/ml after 12 hr by turbidometric analysis. As to conditions: read-out: GI. The format is functional.
The test system of data set [17] is Pectobacterium carotovorum. The data set is described as follows: Growth inhibition of Pectobacterium carotovorum at 2 ug/ml after 12 hr by turbidometric analysis. The format is functional. As to conditions: read-out: GI.
The test system of data set [18] is Pectobacterium carotovorum. Briefly: Growth inhibition of Pectobacterium carotovorum at 0.02 ug/ml after 12 hr by turbidometric analysis. The format is functional. As to conditions: read-out: GI.
Data set [19] concerns Pectobacterium carotovorum. The data set is described as follows: Growth inhibition of Pectobacterium carotovorum at 0.2 ug/ml after 12 hr by turbidometric analysis. The format is functional. As to conditions: read-out: GI.
In data set [20] the test system is Rhizoctonia solani. Briefly: Growth inhibition of Rhizoctonia solani at 5 ug/ml after 24 to 28 […] by growth rate method. Type of data set: functional. The following applies: read-out: GI.
The subject of data set [21] is Pectobacterium carotovorum. Briefly: Growth inhibition of Pectobacterium carotovorum at 0.05 ug/ml after 12 hr by turbidometric analysis. Type of data set: functional. The following applies: read-out: GI.
The test system of data set [22] is Pectobacterium carotovorum. Briefly: Growth inhibition of Pectobacterium carotovorum at 70 ug/ml after 12 hr by turbidometric analysis. The format is functional. The following applies: read-out: GI.
For data set [23], the system named is Rhizoctonia solani. The data set is described as follows: Growth inhibition of Rhizoctonia solani at 70 ug/ml after 24 to 28 […] by growth rate method. As to conditions: read-out: GI. Type of data set: functional.
Data set [24] concerns Rhizoctonia solani. The data set is described as follows: Growth inhibition of Rhizoctonia solani at 15 ug/ml after 24 to 28 […] by growth rate method. The following applies: read-out: GI. The format is functional.
For data set [25], the system named is Rhizoctonia solani. The data set is described as follows: Growth inhibition of Rhizoctonia solani at 25 ug/ml after 24 to 28 […] by growth rate method. Type of data set: functional. As to conditions: read-out: GI.
For data set [26], the system named is Pectobacterium carotovorum. Briefly: Growth inhibition of Pectobacterium carotovorum at 80 ug/ml after 12 hr by turbidometric analysis. Type of data set: functional. The following applies: read-out: GI.
Data set [27] has as its system Pectobacterium carotovorum. Briefly: Growth inhibition of Pectobacterium carotovorum at 100 ug/ml after 12 hr by turbidometric analysis. Type of data set: functional. The following applies: read-out: GI.

Consider `CCCCCCCN=C=S` [1-ISOTHIOCYANATOHEPTANE], for which the inhibition of growth at 20 µg/mL in [1] came out at 84.1%. The EC50 came to 54.5 µg/mL (≈ 346 µM) in [2] and 7.51 µg/mL (≈ 47.7 µM) in data set [6]. In data set [3], the inhibition of growth at 30 µg/mL was found to be 94.4%. In addition, in [4], the logP was found to be 4.19. In data set [5], the inhibition of growth at 500 µg/mL amounted to 89.1%. The inhibition of growth at 5 µg/mL in [7] is 28.8%. In addition, the values for the inhibition of growth at 10 µg/mL in [8] and in data set [11] were 21.6% and 68%, respectively. In addition, the inhibition of growth at 50 µg/mL in data set [9] amounted to 46.6%; in [12] it was 97%. Also, the inhibition of growth at 300 µg/mL in data set [10] came out at 75.1%. The inhibition of growth at 100 µg/mL in [13] worked out at 62%.
Take `CCCCCCN=C=S` [1-ISOTHIOCYANATOHEXANE]: in data set [4], the logP was determined as 3.68.
Take `CCCCCCCCN=C=S` [1-ISOTHIOCYANATOOCTANE]: the inhibition of growth at 1 µg/mL in data set [14] came to 47.8%. Further, the EC50 in data set [2] amounted to 34.7 µg/mL (≈ 203 µM); in data set [6], 1.17 µg/mL (≈ 6.83 µM). The molecule also gave a logP in [4] of 4.7. Besides, the inhibition of growth at 500 µg/mL in data set [5] amounted to 84.2%. Also, the inhibition of growth at 0.5 µg/mL in data set [15] came out at 24.7%. For the same molecule, the inhibition of growth at 5 µg/mL in [7] came to 70.6%. Further, the inhibition of growth at 0.01 µg/mL in [16] amounted to 6.4%. The figures for the inhibition of growth at 10 µg/mL in data set [8] and in data set [11] were 21.8% and 83.1%, respectively. The inhibition of growth at 50 µg/mL in data set [9] was 66.1%. Also, the inhibition of growth at 300 µg/mL in data set [10] turned out to be 82.2%. The inhibition of growth at 100 µg/mL in data set [13] was found to be 74.8%.
As for `CCCCCN=C=S` [1-ISOTHIOCYANATOPENTANE], the EC50 in data set [2] is 90 µg/mL (≈ 696 µM); in [6] it was 2.03 µg/mL (≈ 15.7 µM). The logP in data set [4] came out at 3.17. The inhibition of growth at 500 µg/mL in data set [5] amounted to 87.4%. For the same molecule, the inhibition of growth at 2 µg/mL in data set [17] amounted to 36%. Further, the inhibition of growth at 0.5 µg/mL in [15] was determined as 26.2%. Moreover, the inhibition of growth at 5 µg/mL in [7] was 72.3%. Further, the inhibition of growth at 0.02 µg/mL in data set [18] stood at 2.04%. Moreover, the inhibition of growth at 10 µg/mL in data set [8] came out at 16%. For the same molecule, the inhibition of growth at 50 µg/mL in data set [9] was found to be 34.9%. In addition, the inhibition of growth at 300 µg/mL in data set [10] was determined as 69%. In [13], the inhibition of growth at 100 µg/mL came out at 44.6%. Further, the inhibition of growth at 0.2 µg/mL in data set [19] is 22.3%.
Consider `CCCCN=C=S` [BUTYL ISOTHIOCYANATE], for which, in [1], the inhibition of growth at 20 µg/mL is 84.4%. In addition, the figures for the EC50 in data set [2] and in [6] were 42.8 µg/mL (≈ 372 µM) and 26.1 µg/mL (≈ 227 µM), respectively. In [4], this molecule yielded a logP of 2.66. The results for the inhibition of growth at 5 µg/mL in data set [7] and in data set [20] were 31.7% and 3.72%, respectively. Also, the inhibition of growth at 0.05 µg/mL in data set [21] amounted to 6.38%. In addition, the inhibition of growth at 10 µg/mL in data set [8] worked out at 15.5%; in [11] it was 43.9%. In addition, in [9], the inhibition of growth at 50 µg/mL turned out to be 57.7%. In addition, the inhibition of growth at 300 µg/mL in data set [10] was determined as 91.6%. The inhibition of growth at 100 µg/mL in data set [13] was 68.2%. Also, the inhibition of growth at 0.2 µg/mL in [19] was 10.7%.
Regarding `CCN=C=S` [ETHYL ISOTHIOCYANATE], the results for the inhibition of growth at 70 µg/mL in data set [22] and in [23] were 94.8% and 73.9%, respectively. Further, in data set [1], the inhibition of growth at 20 µg/mL worked out at 11.7%. In addition, the figures for the EC50 in [2] and in data set [6] were 3.52 µg/mL (≈ 40.4 µM) and 41.6 µg/mL (≈ 478 µM), respectively. In data set [3], the inhibition of growth at 30 µg/mL was 48.5%. The molecule further registered a logP in data set [4] of 1.64. In data set [20], the inhibition of growth at 5 µg/mL is 58.8%. Also, the inhibition of growth at 10 µg/mL in data set [8] was determined as 61.1%; in data set [11] it was 6.74%. For the same molecule, the inhibition of growth at 50 µg/mL stood at 67.3% in data set [9] and 64.6% in data set [12]. For the same molecule, in [13], the inhibition of growth at 100 µg/mL stood at 91.8%.
For `CN=C=S` [METHYLISOTHIOCYANATE], in [1], the inhibition of growth at 20 µg/mL came out at 29.9%. For the same molecule, the EC50 came to 12.3 µg/mL (≈ 169 µM) in [2] and 38.2 µg/mL (≈ 523 µM) in data set [6]. In addition, the logP in data set [4] was 1.13. Further, the inhibition of growth at 15 µg/mL in data set [24] was found to be 49.7%. For the same molecule, the inhibition of growth at 25 µg/mL in data set [25] was 66.3%. Further, in [26], the inhibition of growth at 80 µg/mL worked out at 71.5%. In addition, the inhibition of growth at 10 µg/mL stood at 41.5% in data set [8] and 10.9% in [11]. Also, the figures for the inhibition of growth at 50 µg/mL in data set [9] and in data set [12] were 77.5% and 61.1%, respectively. Also, the inhibition of growth at 100 µg/mL was determined as 81.3% in data set [27] and 84.6% in [13].
Consider `CCCN=C=S` [PROPYL ISOTHIOCYANATE], for which the inhibition of growth at 20 µg/mL in [1] came to 47%. Also, the results for the EC50 in data set [2] and in [6] were 12 µg/mL (≈ 118 µM) and 20.6 µg/mL (≈ 204 µM), respectively. The molecule also registered a logP in [4] of 2.15. Also, the inhibition of growth at 80 µg/mL in data set [26] came out at 86%. In data set [20], the inhibition of growth at 5 µg/mL amounted to 21.4%. The inhibition of growth at 10 µg/mL in data set [8] turned out to be 50.1%; in data set [11], 29%. Also, the figures for the inhibition of growth at 50 µg/mL in data set [9] and in [12] were 68% and 76.3%, respectively. In [10], the inhibition of growth at 300 µg/mL came to 93.7%. Moreover, the inhibition of growth at 100 µg/mL in data set [27] amounted to 90.7%; in [13] it was 84.2%.
